# Measurements as given in patent US9951028B2, “Agricultural chemicals” (REDAG CROP PROTECTION LTD, priority 2013, dated 2018).
# Columns and labels:
# [1] = test system: common chickweed, Stellaria media; assay: Herbicidal efficacy screen, potter tower spray, necrosis assessed; format: in vivo
# Protocol: (§1) Compounds 22, 23 and 24 were screened for herbicidal efficacy against target plants: garden cress, Lepidium sativum, common chickweed, Stellaria media, and white mustard […] alba Plants were obtained as seeds and were grown to the 2-4 true leaf stage. Plants were grown under laboratory conditions, individually in seed trays. Each plant (in an approximately 3 cm diameter plug) was then detached from the tray for spraying. The compounds were screened at a range of five concentrations, diluted in acetone and TweenTM. A carrier only control was also conducted. Treatments were applied directly onto the plants, using a potter tower, at a specified application rate. One plant of each species was sprayed using a potter tower. The 3 different types of plants were placed on a 10 cm diameter platform directly beneath the potter sprayer and sprayed simultaneously. The growth of the plants and any Phytotoxicity effects were then assessed at intervals over 21 days, according to EPPO guideline PP1/135. Five replicas were performed for each treatment, for each species. In the tables below C represents a percentage increase in necrosis relative to the control of 0.1-50; B represents a percentage inhibition of 50-80; and A represents a percentage inhibition of 80-100.
# [2] = test system: white mustard Sinapsis alba; assay: as above; format: in vivo
# Protocol: as §1
# [3] = 12.5 g/ha, day 3 post application
# [4] = 12.5 g/ha, day 4 post application
# [5] = 12.5 g/ha, day 5 post application
# [6] = 12.5 g/ha, day 7 post application
# [7] = 12.5 g/ha, day 10 post application
# [8] = 25 g/ha, day 1 post application
# [9] = 25 g/ha, day 2 post application
# [10] = 25 g/ha, day 3 post application
# [11] = 25 g/ha, day 4 post application
# [12] = 25 g/ha, day 5 post application
# [13] = 25 g/ha, day 7 post application
# [14] = 25 g/ha, day 10 post application
# [15] = 50 g/ha, day 1 post application
# [16] = 50 g/ha, day 2 post application
# [17] = 50 g/ha, day 3 post application
# [18] = 50 g/ha, day 4 post application
# [19] = 50 g/ha, day 5 post application
# [20] = 50 g/ha, day 7 post application
# [21] = 50 g/ha, day 10 post application
# [22] = 100 g/ha, day 1 post application
# [23] = 100 g/ha, day 2 post application
# [24] = 100 g/ha, day 3 post application
# [25] = 100 g/ha, day 4 post application
# [26] = 100 g/ha, day 5 post application
# [27] = 100 g/ha, day 7 post application
# [28] = 100 g/ha, day 10 post application
# [29] = 200 g/ha, day 1 post application
# [30] = 200 g/ha, day 2 post application
# [31] = 200 g/ha, day 3 post application
# [32] = 200 g/ha, day 4 post application
# [33] = 200 g/ha, day 5 post application
# [34] = 200 g/ha, day 7 post application
# [35] = 200 g/ha, day 10 post application
smiles,measurement,setting,value
"CC(C)N(C)S(=O)(=O)/N=C/c1cc(-n2c(=O)cc(C(F)(F)F)n(C)c2=O)c(F)cc1Cl [Compound 22, 1-[4-Chloro-2-fluoro-5-[(E)-(isopropyl(methyl)sulfamoyl)iminomethyl]phenyl]-3-methyl-2,6-dioxo-4-(trifluoromethyl)pyrimidine]",Average of necrosis,[1]; [3],C (C represents a percentage increase in necrosis relative to the control of 0.1-50)
same,Average of necrosis,[1]; [4],C (C represents a percentage increase in necrosis relative to the control of 0.1-50)
same,Average of necrosis,[1]; [5],B (B represents a percentage inhibition of 50-80)
same,Average of necrosis,[1]; [6],B (B represents a percentage inhibition of 50-80)
same,Average of necrosis,[1]; [7],B (B represents a percentage inhibition of 50-80)
same,Average of necrosis,[1]; [8],C (C represents a percentage increase in necrosis relative to the control of 0.1-50)
same,Average of necrosis,[1]; [9],C (C represents a percentage increase in necrosis relative to the control of 0.1-50)
same,Average of necrosis,[1]; [10],C (C represents a percentage increase in necrosis relative to the control of 0.1-50)
same,Average of necrosis,[1]; [11],C (C represents a percentage increase in necrosis relative to the control of 0.1-50)
same,Average of necrosis,[1]; [12],A (A represents a percentage inhibition of 80-100)
same,Average of necrosis,[1]; [13],A (A represents a percentage inhibition of 80-100)
same,Average of necrosis,[1]; [14],A (A represents a percentage inhibition of 80-100)
same,Average of necrosis,[1]; [15],C (C represents a percentage increase in necrosis relative to the control of 0.1-50)
same,Average of necrosis,[1]; [16],C (C represents a percentage increase in necrosis relative to the control of 0.1-50)
same,Average of necrosis,[1]; [17],C (C represents a percentage increase in necrosis relative to the control of 0.1-50)
same,Average of necrosis,[1]; [18],B (B represents a percentage inhibition of 50-80)
same,Average of necrosis,[1]; [19],B (B represents a percentage inhibition of 50-80)
same,Average of necrosis,[1]; [20],B (B represents a percentage inhibition of 50-80)
same,Average of necrosis,[1]; [21],A (A represents a percentage inhibition of 80-100)
same,Average of necrosis,[1]; [22],C (C represents a percentage increase in necrosis relative to the control of 0.1-50)
same,Average of necrosis,[1]; [23],C (C represents a percentage increase in necrosis relative to the control of 0.1-50)
same,Average of necrosis,[1]; [24],C (C represents a percentage increase in necrosis relative to the control of 0.1-50)
same,Average of necrosis,[1]; [25],B (B represents a percentage inhibition of 50-80)
same,Average of necrosis,[1]; [26],A (A represents a percentage inhibition of 80-100)
same,Average of necrosis,[1]; [27],A (A represents a percentage inhibition of 80-100)
same,Average of necrosis,[1]; [28],A (A represents a percentage inhibition of 80-100)
same,Average of necrosis,[1]; [29],C (C represents a percentage increase in necrosis relative to the control of 0.1-50)
same,Average of necrosis,[1]; [30],C (C represents a percentage increase in necrosis relative to the control of 0.1-50)
same,Average of necrosis,[1]; [31],C (C represents a percentage increase in necrosis relative to the control of 0.1-50)
same,Average of necrosis,[1]; [32],B (B represents a percentage inhibition of 50-80)
same,Average of necrosis,[1]; [33],A (A represents a percentage inhibition of 80-100)
same,Average of necrosis,[1]; [34],A (A represents a percentage inhibition of 80-100)
same,Average of necrosis,[1]; [35],A (A represents a percentage inhibition of 80-100)
same,Average of necrosis,"[2]; 12.5 g/ha, day 1 post application",C (C represents a percentage increase in necrosis relative to the control of 0.1-50)
same,Average of necrosis,"[2]; 12.5 g/ha, day 2 post application",C (C represents a percentage increase in necrosis relative to the control of 0.1-50)
same,Average of necrosis,[2]; [3],C (C represents a percentage increase in necrosis relative to the control of 0.1-50)
same,Average of necrosis,[2]; [4],C (C represents a percentage increase in necrosis relative to the control of 0.1-50)
same,Average of necrosis,[2]; [5],C (C represents a percentage increase in necrosis relative to the control of 0.1-50)
same,Average of necrosis,[2]; [6],C (C represents a percentage increase in necrosis relative to the control of 0.1-50)
same,Average of necrosis,[2]; [7],B (B represents a percentage inhibition of 50-80)
same,Average of necrosis,[2]; [8],C (C represents a percentage increase in necrosis relative to the control of 0.1-50)
same,Average of necrosis,[2]; [9],C (C represents a percentage increase in necrosis relative to the control of 0.1-50)
same,Average of necrosis,[2]; [10],C (C represents a percentage increase in necrosis relative to the control of 0.1-50)
same,Average of necrosis,[2]; [11],C (C represents a percentage increase in necrosis relative to the control of 0.1-50)
same,Average of necrosis,[2]; [12],C (C represents a percentage increase in necrosis relative to the control of 0.1-50)
same,Average of necrosis,[2]; [13],C (C represents a percentage increase in necrosis relative to the control of 0.1-50)
same,Average of necrosis,[2]; [14],C (C represents a percentage increase in necrosis relative to the control of 0.1-50)
same,Average of necrosis,[2]; [15],C (C represents a percentage increase in necrosis relative to the control of 0.1-50)
same,Average of necrosis,[2]; [16],C (C represents a percentage increase in necrosis relative to the control of 0.1-50)
same,Average of necrosis,[2]; [17],C (C represents a percentage increase in necrosis relative to the control of 0.1-50)
same,Average of necrosis,[2]; [18],C (C represents a percentage increase in necrosis relative to the control of 0.1-50)
same,Average of necrosis,[2]; [19],B (B represents a percentage inhibition of 50-80)
same,Average of necrosis,[2]; [20],B (B represents a percentage inhibition of 50-80)
same,Average of necrosis,[2]; [21],B (B represents a percentage inhibition of 50-80)
same,Average of necrosis,[2]; [22],C (C represents a percentage increase in necrosis relative to the control of 0.1-50)
same,Average of necrosis,[2]; [23],C (C represents a percentage increase in necrosis relative to the control of 0.1-50)
same,Average of necrosis,[2]; [24],C (C represents a percentage increase in necrosis relative to the control of 0.1-50)
same,Average of necrosis,[2]; [25],C (C represents a percentage increase in necrosis relative to the control of 0.1-50)
same,Average of necrosis,[2]; [26],C (C represents a percentage increase in necrosis relative to the control of 0.1-50)
same,Average of necrosis,[2]; [27],C (C represents a percentage increase in necrosis relative to the control of 0.1-50)
same,Average of necrosis,[2]; [28],B (B represents a percentage inhibition of 50-80)
same,Average of necrosis,[2]; [29],C (C represents a percentage increase in necrosis relative to the control of 0.1-50)
same,Average of necrosis,[2]; [30],C (C represents a percentage increase in necrosis relative to the control of 0.1-50)
same,Average of necrosis,[2]; [31],C (C represents a percentage increase in necrosis relative to the control of 0.1-50)
same,Average of necrosis,[2]; [32],C (C represents a percentage increase in necrosis relative to the control of 0.1-50)
same,Average of necrosis,[2]; [33],C (C represents a percentage increase in necrosis relative to the control of 0.1-50)
same,Average of necrosis,[2]; [34],C (C represents a percentage increase in necrosis relative to the control of 0.1-50)
same,Average of necrosis,[2]; [35],B (B represents a percentage inhibition of 50-80)
